{
  "source": "patent US6465476B1",
  "about": "“Immuno-modulator exhibiting antimicrobial and anti-mycrobacterial activities, method for producing the same and pharmaceutical preparation” (priority 1997, dated 2002)",
  "key": {"[1]": {"test_system": "tuberculosis mycobacteria H37Rv (USSR H37Rv)", "assay_type": "in vivo, tuberculosis mycobacteria; mice of the CBA line", "details": "for Damage index / Life duration / Weight of the lung: USSR H37Rv"}, "macrophages": {"test_system": "macrophages", "assay": "Phagocytic activity of macrophages (clearance from blood)", "assay_type": "in vivo, mice", "details": "500 μg per mouse per os", "excerpt": "The influence of the preparations in question on the phagocytic activity of macrophages was studid from clearence of the carcass in blood taken from the retroorbital sinus of mice that received the preparations per os. The results were estimated on the phagocytic index α (see Table 4)."}, "white unbred mice": {"test_system": "white unbred mice", "assay": "Toxicity on white unbred mice by Litchfild-Wilkokson's procedure", "assay_type": "in vivo", "details": "white unbred mice 18 to 20 g, sharp experiment"}, "agent of leprosy": {"test_system": "agent of leprosy", "assay": "Example 1, patient X, border-line tuberculoid leprosy", "assay_type": "in vivo, human", "set-up": "histological index: scale not given here; Leucocytes / T-lymphocytes: unit not given here", "excerpt": "The patient X was admitted to a clinic with a diagnosis “border-line tuberculoid leprosy”. They had been considering themself ill for two years. They supposed that they had been infected in Africa where they had worked 8 years ago and used to receive vegetables from lepers. On the skin of the back, on the skin of the lateral abdiminal surfaces, on the left hip and shin, the left temple area of the head there were yellowish-reddish papules with a rust-coloured hue and sized 1.5 times 2 cm to 4 times 6 cm with no sensitivity in ther center. Disorder of sensitivity was noted along the length of peroneal and elbow nerves. The agent of leprosy was neither detected in the scrape from the nasal mucosa nor in the lymph on the bacterioscopic investigation. […] In the surface layers of derma there were multiple infiltrates and in the deeper layers of the skin there were focal and strand infiltrates. The histological index was equal to 1.1. The patient was prescribed a treatment in the form of isophonum to be taken internally 0.2 g each time twice a day. After 3.5 months all the elements (plaques) on the skin completely resolved and were replaced by hyperpigmented spots which after 4 months completely gained the colour of a normal skin. […] The patient was not hospitalyzed and received home treatment without interrupting their work. […] The histological index equaled 0. When histological investigation was repeated after 7 months with the purpose of transfering the patient under dispensary observation, the agent of leprosy was not detected either, in the surface layer of the derma were noted some small infiltrates out of lymphocytes with epithelioid cells in the form of accumulations.\nIn deeper layers of the skin there were small infiltrates around the blood vessels. It was decided to prolong the treatment of the patient for 6 months by administering isophonum internally in combination with diuciphonum."}, "[2]": {"assay": "Example 2, patient D., bronchiectatic disease", "assay_type": "in vivo, human", "details": "daily dose 400 mg", "procedure": "The patient was admitted to a clinic with a diagnosis “bronchiectatic disease”. Concomitant diseases were chronic tonsillitis, diffuse enlargement of thyroid approximately of the first or the second degree.\nAccording to the protocol of clinical tests the patient was ordered the intake of isophonum for the periode of 30 days in a daily dose of 400 mg. On the 14th or 15th day of intake of the preparation the morning sputum discharge considerably diminished in quantity and changed in character from pussy to mucous, the cough ceased and the patient's general state of health and mood improved."}, "[3]": {"test_system": "Kyp-4 strain of leprosy mycobacteria", "assay": "Antileprous activity in mice infected by Shepard's procedure", "assay_type": "in vivo, leprosy mycobacteria; male mice of the CBA line", "excerpt": "Antileprous activity of isophonum as compared with that of diuciphonum was studied on male mice of the CBA line infected with the laboratory Kyp-4 strain of leprosy mycobacteria taken in an amount of 5000 and introduced intraplantedly by Shepard's procedure. The experiment lasted six months from the 7th of February to the […] 1996. Observed were 5 groups of mice with 15 mice in each group. All the animals were kept under the same conditions of the vivarium on a standard diat.\nThe first group (controls): during six months of the experiment the mice received 0.5 ml of a starch suspension through a probe five times a week. After six months the animals were killed through a cervical dislocation of backbone, the organs were subjected to a bacterioscopic investigation, no pathologic deviations characteristic of any of the groups were found. The bacteriscopic investigation of the infected site was carried out by grinding the mouse foot in 2 ml of 0.1 percent solution of albumin, making a smear from 0.01 ml of the suspenstion and painting it by Ziel-Nielson's procedure and counting the number of leprosy micobacteria in 60 fields of vision to determine the number of micobacteria per mouse in each group."}, "Storage stability": {"assay": "Storage stability", "assay_type": "physicochemical", "excerpt": "More precisely, isophonum is produced by boiling equimolecular amounts of isonicotinic acid hydrazide and 6-methyluracyl-5-sulfochloride in anhydrous acetonitrile. The samples of isophonum maintain their properties during the period of time of 3 years."}, "Tubazide-resistent H37Rv": {"test_system": "Tubazide-resistent H37Rv", "assay_type": "in vivo, tuberculosis mycobacteria; mice of the CBA line", "details": "for Damage index / Life duration / Weight of the lung: Tubazide-resistent H37Rv"}},
  "note": "Like-named read-outs stand apart in the source and are kept apart here.",
  "data": [
    {"smiles": "Cc1[nH]c(=O)[nH]c(=O)c1S(=O)(=O)NNC(=O)c1ccncc1.O", "note": "[Isophonum, N-(6-methyl-2,4-dioxo-1,2,3,4-tetrahydro-5-pyrimidinsulfon)-N′-isonicotinoylhydrazide hydrate]", "values": [
      {"measurement": "Damage index", "setting": "[1]; 100 μg per mouse", "value": "1.91 ± 0.18"},
      {"measurement": "Life duration", "setting": "[1]; 100 μg per mouse", "value": "34.6 ± 4.8"},
      {"measurement": "Weight of the lung", "setting": "[1]; 100 μg per mouse", "value": "507.0 ± 48.4"},
      {"measurement": "Damage index", "setting": "[1]; 200 μg per mouse", "value": "1.81 ± 0.21"},
      {"measurement": "Life duration", "setting": "[1]; 200 μg per mouse", "value": "35.7 ± 5.2"},
      {"measurement": "Weight of the lung", "setting": "[1]; 200 μg per mouse", "value": "495.4 ± 56.1"},
      {"measurement": "antituberculous action", "setting": "[1]; mouse, in vivo", "value": "pronounced antituberculous action"},
      {"measurement": "Phagocytic index", "setting": "macrophages", "value": "6.55 ± 0.06"},
      {"measurement": "stimulation of the phagocytic activity of macrophages", "setting": "macrophages", "value": 56, "unit": "%"},
      {"measurement": "Phagocytic index, percent of controls", "setting": "macrophages; controls 100%", "value": "(156%)"},
      {"measurement": "toxicity", "setting": "white unbred mice", "value": "exceed 7000 mg/kg"},
      {"measurement": "time after which all the elements (plaques) on the skin completely resolved", "setting": "agent of leprosy; 0.2 g twice a day", "value": 3.5, "unit": "months"},
      {"measurement": "histological index", "setting": "agent of leprosy; 3 months later, 0.2 g twice a day", "value": 0},
      {"measurement": "histological index", "setting": "agent of leprosy; before treatment", "value": 1.1},
      {"measurement": "B-lymphocytes, %", "setting": "agent of leprosy; day 0 (before treatment)", "value": 12, "unit": "%"},
      {"measurement": "Leucocytes", "setting": "agent of leprosy; day 0 (before treatment)", "value": 6.1},
      {"measurement": "Lymphocytes, %", "setting": "agent of leprosy; day 0 (before treatment)", "value": 18, "unit": "%"},
      {"measurement": "T-helpers, %", "setting": "agent of leprosy; day 0 (before treatment)", "value": 50, "unit": "%"},
      {"measurement": "T-lymphocytes", "setting": "agent of leprosy; day 0 (before treatment)", "value": 57},
      {"measurement": "T-suppressors", "setting": "agent of leprosy; day 0 (before treatment)", "value": 4},
      {"measurement": "B-lymphocytes, %", "setting": "agent of leprosy; day 180, 0.2 g twice a day", "value": 17, "unit": "%"},
      {"measurement": "Leucocytes", "setting": "agent of leprosy; day 180, 0.2 g twice a day", "value": 6.8},
      {"measurement": "Lymphocytes, %", "setting": "agent of leprosy; day 180, 0.2 g twice a day", "value": 30, "unit": "%"},
      {"measurement": "T-helpers, %", "setting": "agent of leprosy; day 180, 0.2 g twice a day", "value": 63, "unit": "%"},
      {"measurement": "T-lymphocytes", "setting": "agent of leprosy; day 180, 0.2 g twice a day", "value": 80},
      {"measurement": "T-suppressors", "setting": "agent of leprosy; day 180, 0.2 g twice a day", "value": 27},
      {"measurement": "Phagocytosis", "setting": "agent of leprosy; first column (no day head; presumably day 0)", "value": 30},
      {"measurement": "Phagocytosis", "setting": "agent of leprosy; second column (no day head; presumably day 180)", "value": 5},
      {"measurement": "day of considerable improvement of clinical status and general blood analysis", "setting": "[2]", "value": 20, "unit": "days"},
      {"measurement": "day of considerable improvement of immune status parameters", "setting": "[2]", "value": 31, "unit": "days"},
      {"measurement": "activity against the leprosy mycobacteria", "setting": "[3]; 2.5 mg/kg", "value": "bactericide activity"},
      {"measurement": "Percentage of infected animals", "setting": "[3]; after six months, isophonum dose 2.5 mg/kg", "value": 0, "unit": "%"},
      {"measurement": "period of time during which samples maintain their properties", "setting": "Storage stability", "value": 3, "unit": "years"},
      {"measurement": "Damage index", "setting": "Tubazide-resistent H37Rv; 100 μg per mouse", "value": "1.91 ± 0.18"},
      {"measurement": "Life duration", "setting": "Tubazide-resistent H37Rv; 100 μg per mouse", "value": "35.2 ± 3.4"},
      {"measurement": "Weight of the lung", "setting": "Tubazide-resistent H37Rv; 100 μg per mouse", "value": "493.4 ± 65.1"},
      {"measurement": "Damage index", "setting": "Tubazide-resistent H37Rv; 200 μg per mouse", "value": "1.72 ± 0.24"},
      {"measurement": "Life duration", "setting": "Tubazide-resistent H37Rv; 200 μg per mouse", "value": "37.1 ± 6.2"},
      {"measurement": "Weight of the lung", "setting": "Tubazide-resistent H37Rv; 200 μg per mouse", "value": "478.2 ± 60.8"},
      {"measurement": "antituberculous action", "setting": "Tubazide-resistent H37Rv; mycobacteria resistent to tubazide and streptomycin", "value": "pronounced antituberculous action"}
    ]}
  ]
}
